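Test compounds were applied to cells in 96-well plates for 48 hours at 5 doses. Abbreviation: GI50, concentration required for 50% inhibition of growth. TGI: concentration producing complete growth inhibition.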
Columns and labels:
Assay in all cases: NCI tumour cell line growth inhibition, 48 h
CAKI-1 renal = system: CAKI-1 renal
COLO 205 colon = system: COLO 205 colon
K-562 leukemia = system: K-562 leukemia
LOX IMVI melanoma = system: LOX IMVI melanoma
MALME-3M melanoma = system: MALME-3M melanoma
MCF7 breast = system: MCF7 breast
MOLT-4 leukemia = system: MOLT-4 leukemia
SN12C renal = system: SN12C renal
SR leukemia = system: SR leukemia
UACC-257 melanoma = system: UACC-257 melanoma

SMILES	TGI (CAKI-1 renal) [µM]	TGI (COLO 205 colon) [µM]	TGI (K-562 leukemia) [µM]	TGI (LOX IMVI melanoma) [µM]	TGI (MALME-3M melanoma) [µM]	TGI (MCF7 breast) [µM]	TGI (MOLT-4 leukemia) [µM]	TGI (SN12C renal) [µM]	TGI (SR leukemia) [µM]	TGI (UACC-257 melanoma) [µM]	GI50 (CAKI-1 renal) [µM]	GI50 (COLO 205 colon) [µM]	GI50 (K-562 leukemia) [µM]	GI50 (LOX IMVI melanoma) [µM]	GI50 (MCF7 breast) [µM]	GI50 (SN12C renal) [µM]	GI50 (SR leukemia) [µM]	GI50 (UACC-257 melanoma) [µM]
c1csc(-c2nnc(C34CC5CC(CC(C5)C3)C4)o2)c1	> 100	31.2	> 100	47.1	39.4	> 100	60	> 100	66.6	–	–	–	–	–	–	–	–	–
C=C1[C@H](OCC(C)C)[C@@H](OC(=O)C(C)CC)[C@@H](O)C(C)(C)/C=C/[C@H](C)C(=O)[C@@]2(O)C[C@H](C)[C@H](O)[C@@H]2[C@H]1OC(=O)C(C)CC (some centres undefined)	> 18.7	> 9.67	> 13.5	> 13.3	> 20	> 16	> 10.3	> 20	> 10.5	> 14.1	–	–	–	–	–	–	–	–
COc1cccc(/C=N/n2c(Cc3ccc(Cl)cc3)n[nH]c2=O)c1	> 81.9	> 100	> 100	> 100	> 100	> 100	> 100	71	> 100	> 100	–	–	–	–	–	–	–	–
CCOC(=O)C1=CN(C(=O)c2ccccc2)CCC1Cc1ccccc1 (centres undefined)	> 100	51.9	77.3	34.4	68	64	38.5	57.4	37.5	34.3	–	–	–	–	–	–	–	–
O=C1OC(C(O)C(O)C(O)CO)C(O)C1O (centres undefined)	> 100	> 100	> 100	> 100	> 100	> 100	> 100	> 100	> 100	> 100	–	–	–	–	–	–	–	–
Cc1[nH]c(=O)[nH]c(=O)c1C(=O)N(CCO)Cc1ccccc1	–	45.7	> 100	> 100	> 100	> 100	> 100	> 100	> 100	> 100	–	–	–	–	–	–	–	–
C1=C[C@]2(CCC13OCCO3)COc1ccccc12	> 100	> 100	> 100	59	–	> 100	> 100	> 100	> 100	> 100	–	–	–	–	–	–	–	–
O=C1/C(=C2\SCC(=O)N2c2ccccc2)SC(=S)N1c1ccccc1	57.1	> 100	> 100	> 100	> 100	> 100	51.7	68.6	29.6	> 100	–	–	–	–	–	–	–	–
O=[N+]([O-])c1cc(Cl)ccc1S(=O)(=O)c1cc(Cl)cc2c1NCCC2	> 100	> 100	> 100	> 100	> 100	> 100	> 100	> 100	> 100	64.8	–	–	–	–	–	–	–	–
Cc1nc2ccccc2cc1C[N+]12CN3CN(CN(C3)C1)C2	59.8	28.8	> 100	32.8	32	27.7	> 100	48.1	> 100	35.5	–	–	–	–	–	–	–	–
OC1(c2ccc(Cl)cc2)c2ccccc2C2=NCc3ccccc3CN21 (centres undefined)	37.7	19	> 58	24.3	27.1	17.9	> 47.6	> 52.4	> 56.3	28.3	–	–	–	–	–	–	–	–
CN(C)/C=N/S(=O)(=O)c1nn2c(C=O)c(-c3cc4ccccc4oc3=O)nc2s1	4.95	–	> 24.4	15.4	6.07	> 36.6	> 20.6	24.5	36.5	29.3	–	–	–	–	–	–	–	–
Cc1nc2sccn2c1C(=O)OCCOCCOCCOCCOC(=O)c1c(C)nc2sccn12	> 100	> 100	> 100	> 100	> 100	> 100	> 100	> 100	> 100	> 100	–	–	–	–	–	–	–	–
CN1N(c2ccccc2)C(=O)C2=NC=C(C#N)C(=N)C21C (centres undefined)	> 100	> 100	> 100	> 100	> 100	> 100	> 100	> 100	> 100	> 100	–	–	–	–	–	–	–	–
O=[N+]([O-])c1ccc(-[n+]2ccc3ccccc3c2)c([N+](=O)[O-])c1	8.74	6.29	> 23.2	3.67	9.09	3.75	> 21	6.82	> 100	4.08	–	–	–	–	–	–	–	–
C/C(NC(=O)c1ccccc1)=C(/C(=O)c1ccccc1)[C@@H]1OC(C)(C)O[C@@H]1[C@H]1COC(C)(C)O1	> 100	48.9	52.8	45.5	> 100	> 100	37.2	60.4	38.5	> 100	–	–	–	–	–	–	–	–
CC(CC(C)(C)[N+](C)(C)C)[N+](C)(C)C (centres undefined)	> 100	> 100	> 100	–	–	> 100	> 100	> 100	> 100	> 100	–	–	–	–	–	–	–	–
OCCNc1nc2c(N3CCCC3)nc(N3CCNCC3)nc2nc1NCc1ccccc1	31.4	24.9	30.1	29.1	35.9	28.3	33.3	30.7	32.7	33.5	–	–	–	–	–	–	–	–
COc1cc([C@@H]2c3cc4c(cc3[C@@H](Nc3ccc(NC(=O)c5cc(NC(=O)c6cc([N+](=O)[O-])cn6C)cn5C)cc3)[C@H]3COC(=O)[C@H]23)OCO4)cc(OC)c1O	> 28.5	17.8	14.4	> 44.1	> 100	> 39.1	–	26.5	> 100	> 82.4	–	–	–	–	–	–	–	–
CC(C)(C)OC(=O)NCCNC(=O)CN(CC(=O)O)C1CCCCC1N(CC(=O)O)CC(=O)O (centres undefined)	> 100	> 100	> 100	> 100	> 100	> 100	> 100	> 100	> 100	> 100	–	–	–	–	–	–	–	–
c1ccc(-c2nc3ccccc3n3nnnc23)cc1	–	> 100	> 100	> 100	> 100	> 100	> 100	> 100	> 100	> 100	–	–	–	–	–	–	–	–
COC1=C(OC)C(=O)C(Cc2c(Cl)nc3n2CCS3)=C(C)C1=O	46.7	31.5	39.9	29.3	21.6	33	3.28	31.3	25.9	22.2	–	–	–	–	–	–	–	–

SMILES	TGI (CAKI-1 renal) [µM]	TGI (COLO 205 colon) [µM]	TGI (K-562 leukemia) [µM]	TGI (LOX IMVI melanoma) [µM]	TGI (MALME-3M melanoma) [µM]	TGI (MCF7 breast) [µM]	TGI (MOLT-4 leukemia) [µM]	TGI (SN12C renal) [µM]	TGI (SR leukemia) [µM]	TGI (UACC-257 melanoma) [µM]	GI50 (CAKI-1 renal) [µM]	GI50 (COLO 205 colon) [µM]	GI50 (K-562 leukemia) [µM]	GI50 (LOX IMVI melanoma) [µM]	GI50 (MCF7 breast) [µM]	GI50 (SN12C renal) [µM]	GI50 (SR leukemia) [µM]	GI50 (UACC-257 melanoma) [µM]
Nc1ccc(-c2nc3cc(F)ccc3s2)cc1	> 100	> 100	> 100	> 100	> 100	> 63.2	> 100	> 100	> 100	> 100	–	–	–	–	–	–	–	–
CCc1cc2c(oc3c4ccccc4ccc23)c(=O)[nH]1	–	–	> 10	> 10	–	> 10	> 10	–	> 10	> 10	–	–	–	–	–	–	–	–
O=C1C=C(NCCc2cc(Br)c(O)c(Br)c2)C(=O)c2[nH]cnc21	> 100	> 100	> 100	> 100	30	48.9	–	> 100	> 100	44.4	–	–	–	–	–	–	–	–
Cc1csc2n(C)c(=O)c3ccccc3[n+]12	> 100	> 100	> 100	> 100	–	> 100	> 100	> 100	> 100	> 100	–	–	–	–	–	–	–	–
CCOC(=O)c1ccc(NC(NC(=O)CC)(C(F)(F)F)C(F)(F)F)cc1	> 100	> 100	> 100	> 100	> 100	> 100	> 100	–	> 100	> 100	–	–	–	–	–	–	–	–
Cc1ccc(NC(=O)CC(=O)N2N=C(c3ccccc3)C(N=Nc3ccc(S(=O)(=O)CCOS(=O)(=O)O)cc3)C2=O)cc1 (centres undefined)	> 100	> 100	> 100	> 100	> 100	> 100	> 100	> 100	> 100	> 100	–	–	–	–	–	–	–	–
O=c1c(S(=O)(=O)Oc2ccccc2)coc2cc(F)ccc12	> 100	–	> 100	> 100	> 100	> 100	> 100	> 100	> 100	> 100	–	–	–	–	–	–	–	–
Cc1ccsc1/C=N/Nc1ccccn1	> 100	> 100	> 100	> 100	> 100	> 100	73.9	> 100	–	> 100	–	–	–	–	–	–	–	–
COC1=CCC2=C(CCN(C(=O)C3CCC3)C2Cc2ccc(OC)c(O)c2)C1 (centres undefined)	> 100	32.1	> 100	> 100	> 100	50.1	> 100	54.3	> 100	> 100	–	–	–	–	–	–	–	–
C/C(=N\n1c(Cc2ccccc2)n[nH]c1=O)c1ccc([N+](=O)[O-])cc1	> 100	> 100	> 100	> 100	> 100	> 100	> 100	> 100	–	> 100	–	–	–	–	–	–	–	–
CN(/N=C/c1ccc(Cl)c(Cl)c1)C1=NCCN1	37.8	38.9	> 100	27.7	36.9	49.8	59.8	92.7	86.7	45.2	–	–	–	–	–	–	–	–
O=[N+]([O-])c1ccc(Cl)cc1N/N=C/c1cccs1	> 100	> 100	> 100	–	–	> 100	> 100	> 100	> 100	> 100	–	–	–	–	–	–	–	–
O=C1C(CN2CCCC2)CCCC1CN1CCCC1 (centres undefined)	3.11	3.07	2.27	6.26	1.27	2.8	–	32.5	5.66	4.39	–	–	–	–	–	–	–	–
O=C1CC(Cl)c2c(Cl)sc(Cl)c21 (centres undefined)	3.18	3.7	> 100	3.15	6.63	2.11	2.37	3.15	–	9.25	–	–	–	–	–	–	–	–
COc1ccc(/C=C/C(c2cc(OC)c(OC)c(OC)c2)n2cncn2)cc1O (centres undefined)	> 100	16.8	> 100	> 100	–	> 100	–	> 100	> 100	> 100	2.83	3.66	0.032	0.0511	0.033	7.19	0.0248	> 100
Cc1nn(C(=O)c2ccc(Cl)cc2)c2c1C(c1ccco1)SC(N)=N2 (centres undefined)	> 10	> 10	> 10	> 10	–	> 10	> 10	> 10	> 10	> 10	–	–	–	–	–	–	–	–
O=C(CC(=O)Nc1ccccc1Cl)NNC(Sc1ccccc1)c1cc(N=Nc2ccc(Br)cc2)ccc1O (centres undefined)	7.19	> 10	6.63	3.15	8.73	3.22	1.75	> 10	–	> 10	–	–	–	–	–	–	–	–
CC(CN(C)C)C(=O)/C=C/c1ccc(Cl)c(Cl)c1 (centres undefined)	4.42	2.58	> 100	2.99	–	0.929	> 100	3.11	6.25	5.61	–	–	–	–	–	–	–	–
Cc1cnc2[nH]c(-c3cccc(Cl)c3)cc(=O)c2c1	59.7	> 37.1	–	11.6	> 100	> 100	–	> 100	> 100	> 100	–	–	–	–	–	–	–	–
Clc1cccc(N=C/C=C/Nc2cccc(Cl)c2)c1	65.1	29.8	–	20.6	–	43.6	73.2	27	62.3	32.2	–	–	–	–	–	–	–	–
c1cn[nH]c1	–	> 10	> 10	> 10	> 10	> 10	> 10	> 10	> 10	–	–	–	–	–	–	–	–	–
C/C(=C/c1c(C)[nH]c(=O)[nH]c1=O)C(=O)O	> 1380	> 1380	> 1380	> 1380	> 1380	> 1380	> 1380	> 1380	–	> 1380	–	–	–	–	–	–	–	–
